From article PMC3961306, “Comparison of the Cancer Gene Targeting and Biochemical Selectivities of All Targeted Kinase Inhibitors Approved for Clinical Use” (PLoS ONE, 2014)
Where two headings read alike, the source gives them in different places.

What was measured:
Test in all cases: Kinase profiling in a biochemical assay panel (mobility shift assays and ELISA), %-inhibition at 1 μM; selectivity entropy
[1] = biological target: panel of more than 300 wild-type and mutant kinases (313 kinase panel) (Homo sapiens, UniProt P08581)
[2] = biological target: panel of more than 300 wild-type and mutant kinases (313 kinase panel) (Homo sapiens, UniProt O60674)
Chain of panel of more than 300 wild-type and mutant kinases (313 kinase panel) (Homo sapiens, UniProt O60674) (O60674 whole entry, change not shown): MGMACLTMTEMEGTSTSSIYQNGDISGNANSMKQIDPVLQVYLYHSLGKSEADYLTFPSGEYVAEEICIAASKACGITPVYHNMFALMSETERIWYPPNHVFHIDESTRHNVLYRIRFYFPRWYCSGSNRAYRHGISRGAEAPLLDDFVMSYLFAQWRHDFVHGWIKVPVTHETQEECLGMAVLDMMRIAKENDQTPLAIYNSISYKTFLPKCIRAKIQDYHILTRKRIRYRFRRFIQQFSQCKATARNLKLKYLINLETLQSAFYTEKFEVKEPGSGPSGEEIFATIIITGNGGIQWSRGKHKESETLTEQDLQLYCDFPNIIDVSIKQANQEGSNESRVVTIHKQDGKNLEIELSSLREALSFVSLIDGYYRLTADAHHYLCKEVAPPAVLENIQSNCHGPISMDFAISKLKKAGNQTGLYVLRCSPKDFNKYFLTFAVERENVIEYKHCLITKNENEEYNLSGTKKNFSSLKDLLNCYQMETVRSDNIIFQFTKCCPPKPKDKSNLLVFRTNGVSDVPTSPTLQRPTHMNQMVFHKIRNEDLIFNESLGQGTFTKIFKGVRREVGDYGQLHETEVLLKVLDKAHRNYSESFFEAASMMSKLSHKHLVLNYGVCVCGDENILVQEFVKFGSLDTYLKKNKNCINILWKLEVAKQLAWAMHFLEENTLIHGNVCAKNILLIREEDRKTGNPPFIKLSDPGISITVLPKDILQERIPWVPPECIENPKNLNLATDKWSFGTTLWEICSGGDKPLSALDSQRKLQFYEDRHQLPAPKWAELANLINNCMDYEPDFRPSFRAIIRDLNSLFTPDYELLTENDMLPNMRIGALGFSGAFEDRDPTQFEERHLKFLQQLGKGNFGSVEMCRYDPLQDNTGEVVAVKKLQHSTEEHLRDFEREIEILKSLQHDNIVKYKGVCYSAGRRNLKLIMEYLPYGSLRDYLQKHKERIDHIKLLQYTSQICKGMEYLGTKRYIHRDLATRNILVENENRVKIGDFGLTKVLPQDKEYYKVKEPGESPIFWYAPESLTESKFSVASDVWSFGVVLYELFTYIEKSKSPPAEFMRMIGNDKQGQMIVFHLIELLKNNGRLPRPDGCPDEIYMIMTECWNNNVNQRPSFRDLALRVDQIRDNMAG

[3] = biological target: panel of more than 300 wild-type and mutant kinases (313 kinase panel) (Homo sapiens, UniProt Q9UM73)
[4] = biological target: panel of more than 300 wild-type and mutant kinases (313 kinase panel) (Homo sapiens, UniProt O75676)
[5] = test system: panel of more than 300 wild-type and mutant kinases (313 kinase panel)
[6] = biological target: panel of more than 300 wild-type and mutant kinases (313 kinase panel) (Homo sapiens, UniProt P51812)
[7] = biological target: T1, panel of more than 300 wild-type and mutant kinases (313 kinase panel) (Homo sapiens, UniProt Q13163)
T1 sequence (Q13163 1-448): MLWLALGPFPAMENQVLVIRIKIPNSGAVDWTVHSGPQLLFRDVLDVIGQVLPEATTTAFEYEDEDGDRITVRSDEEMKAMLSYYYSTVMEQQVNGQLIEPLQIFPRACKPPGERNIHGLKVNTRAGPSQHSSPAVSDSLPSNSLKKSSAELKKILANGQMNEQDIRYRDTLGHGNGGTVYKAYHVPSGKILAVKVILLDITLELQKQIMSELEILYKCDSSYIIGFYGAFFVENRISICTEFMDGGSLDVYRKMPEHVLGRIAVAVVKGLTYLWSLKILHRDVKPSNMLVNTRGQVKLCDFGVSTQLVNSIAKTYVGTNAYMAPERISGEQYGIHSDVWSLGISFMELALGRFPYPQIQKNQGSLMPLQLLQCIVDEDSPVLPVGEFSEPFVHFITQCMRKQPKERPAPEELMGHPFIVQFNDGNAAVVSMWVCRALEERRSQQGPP

[8] = biological target: panel of more than 300 wild-type and mutant kinases (313 kinase panel) (Homo sapiens, UniProt P22694)
[9] = biological target: panel of more than 300 wild-type and mutant kinases (313 kinase panel) (Homo sapiens, UniProt P53350)
[10] = biological target: T2, panel of more than 300 wild-type and mutant kinases (313 kinase panel) (Homo sapiens, UniProt Q8IW41)
T2 sequence (Q8IW41 1-473): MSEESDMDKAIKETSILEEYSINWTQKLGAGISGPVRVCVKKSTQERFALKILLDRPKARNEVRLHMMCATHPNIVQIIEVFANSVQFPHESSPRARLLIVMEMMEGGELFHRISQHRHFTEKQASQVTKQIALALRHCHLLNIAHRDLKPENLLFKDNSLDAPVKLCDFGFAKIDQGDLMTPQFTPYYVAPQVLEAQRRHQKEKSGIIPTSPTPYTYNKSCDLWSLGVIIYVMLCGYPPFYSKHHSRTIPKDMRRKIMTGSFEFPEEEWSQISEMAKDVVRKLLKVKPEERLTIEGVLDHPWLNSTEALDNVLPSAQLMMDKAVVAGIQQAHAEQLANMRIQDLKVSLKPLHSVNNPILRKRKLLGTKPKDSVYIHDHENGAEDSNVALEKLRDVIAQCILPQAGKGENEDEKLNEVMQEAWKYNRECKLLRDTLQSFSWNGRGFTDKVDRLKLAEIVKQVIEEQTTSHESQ

[11] = biological target: panel of more than 300 wild-type and mutant kinases (313 kinase panel) (Homo sapiens, UniProt Q9H4A3)
Chain of panel of more than 300 wild-type and mutant kinases (313 kinase panel) (Homo sapiens, UniProt Q9H4A3) (Q9H4A3 whole entry, change not shown): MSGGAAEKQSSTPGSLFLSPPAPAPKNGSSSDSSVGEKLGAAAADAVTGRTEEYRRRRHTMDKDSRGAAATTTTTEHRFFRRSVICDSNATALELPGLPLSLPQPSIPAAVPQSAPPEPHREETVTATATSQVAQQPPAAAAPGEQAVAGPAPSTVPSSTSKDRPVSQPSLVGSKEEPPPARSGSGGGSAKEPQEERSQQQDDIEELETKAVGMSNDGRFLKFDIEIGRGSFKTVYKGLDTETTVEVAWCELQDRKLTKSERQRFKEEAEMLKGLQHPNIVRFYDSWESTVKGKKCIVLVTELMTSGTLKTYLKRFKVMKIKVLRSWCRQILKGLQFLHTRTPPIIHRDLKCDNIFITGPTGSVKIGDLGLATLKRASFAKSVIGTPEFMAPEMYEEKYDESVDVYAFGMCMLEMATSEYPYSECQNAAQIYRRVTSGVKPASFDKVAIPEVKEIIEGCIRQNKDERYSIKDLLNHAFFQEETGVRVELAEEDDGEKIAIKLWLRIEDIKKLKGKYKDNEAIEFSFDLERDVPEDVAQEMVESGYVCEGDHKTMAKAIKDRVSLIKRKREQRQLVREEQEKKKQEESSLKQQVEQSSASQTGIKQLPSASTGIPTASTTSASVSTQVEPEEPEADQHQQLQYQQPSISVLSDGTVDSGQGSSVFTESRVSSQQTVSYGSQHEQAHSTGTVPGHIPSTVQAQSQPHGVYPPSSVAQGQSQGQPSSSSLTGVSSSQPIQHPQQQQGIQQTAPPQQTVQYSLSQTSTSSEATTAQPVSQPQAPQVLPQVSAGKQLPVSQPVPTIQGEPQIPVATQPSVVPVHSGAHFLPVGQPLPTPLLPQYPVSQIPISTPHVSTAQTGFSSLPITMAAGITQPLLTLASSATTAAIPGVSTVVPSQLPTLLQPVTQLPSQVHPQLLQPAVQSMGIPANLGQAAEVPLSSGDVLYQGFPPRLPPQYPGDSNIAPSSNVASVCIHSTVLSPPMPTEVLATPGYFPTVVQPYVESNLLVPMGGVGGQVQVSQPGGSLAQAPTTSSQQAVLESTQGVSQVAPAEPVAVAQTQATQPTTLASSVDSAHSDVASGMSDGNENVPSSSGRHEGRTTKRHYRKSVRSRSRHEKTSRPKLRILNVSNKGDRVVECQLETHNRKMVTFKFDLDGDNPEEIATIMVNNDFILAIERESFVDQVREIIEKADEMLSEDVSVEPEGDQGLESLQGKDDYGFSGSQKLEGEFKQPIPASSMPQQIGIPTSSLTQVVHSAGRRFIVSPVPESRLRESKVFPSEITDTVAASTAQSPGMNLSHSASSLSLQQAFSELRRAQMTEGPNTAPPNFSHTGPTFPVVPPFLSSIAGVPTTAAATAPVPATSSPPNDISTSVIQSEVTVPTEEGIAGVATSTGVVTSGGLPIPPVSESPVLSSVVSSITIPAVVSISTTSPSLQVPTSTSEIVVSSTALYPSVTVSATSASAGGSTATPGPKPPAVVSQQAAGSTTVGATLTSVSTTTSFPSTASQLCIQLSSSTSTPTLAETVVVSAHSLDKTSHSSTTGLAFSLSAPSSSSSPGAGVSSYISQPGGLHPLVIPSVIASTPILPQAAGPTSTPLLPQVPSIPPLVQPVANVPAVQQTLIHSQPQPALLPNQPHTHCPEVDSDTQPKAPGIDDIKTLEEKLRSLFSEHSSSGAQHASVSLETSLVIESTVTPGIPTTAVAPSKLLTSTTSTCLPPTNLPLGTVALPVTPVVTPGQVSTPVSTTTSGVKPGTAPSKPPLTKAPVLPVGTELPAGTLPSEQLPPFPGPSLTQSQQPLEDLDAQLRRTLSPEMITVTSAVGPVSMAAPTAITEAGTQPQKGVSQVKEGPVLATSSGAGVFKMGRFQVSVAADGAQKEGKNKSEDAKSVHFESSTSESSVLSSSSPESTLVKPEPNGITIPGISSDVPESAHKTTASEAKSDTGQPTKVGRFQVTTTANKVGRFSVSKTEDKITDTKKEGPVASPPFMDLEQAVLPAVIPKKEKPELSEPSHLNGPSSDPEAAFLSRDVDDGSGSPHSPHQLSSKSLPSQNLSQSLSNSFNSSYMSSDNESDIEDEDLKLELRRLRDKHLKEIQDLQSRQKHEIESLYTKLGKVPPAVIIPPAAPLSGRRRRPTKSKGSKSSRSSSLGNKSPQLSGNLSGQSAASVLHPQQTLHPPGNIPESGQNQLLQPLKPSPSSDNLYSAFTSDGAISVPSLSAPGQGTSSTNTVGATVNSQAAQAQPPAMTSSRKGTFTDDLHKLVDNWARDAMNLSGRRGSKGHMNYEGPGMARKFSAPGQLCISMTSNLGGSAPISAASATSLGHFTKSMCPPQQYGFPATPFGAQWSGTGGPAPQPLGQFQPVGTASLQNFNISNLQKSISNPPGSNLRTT

[12] = biological target: T3, panel of more than 300 wild-type and mutant kinases (313 kinase panel) (Homo sapiens, UniProt O14965)
T3 sequence (O14965 1-403): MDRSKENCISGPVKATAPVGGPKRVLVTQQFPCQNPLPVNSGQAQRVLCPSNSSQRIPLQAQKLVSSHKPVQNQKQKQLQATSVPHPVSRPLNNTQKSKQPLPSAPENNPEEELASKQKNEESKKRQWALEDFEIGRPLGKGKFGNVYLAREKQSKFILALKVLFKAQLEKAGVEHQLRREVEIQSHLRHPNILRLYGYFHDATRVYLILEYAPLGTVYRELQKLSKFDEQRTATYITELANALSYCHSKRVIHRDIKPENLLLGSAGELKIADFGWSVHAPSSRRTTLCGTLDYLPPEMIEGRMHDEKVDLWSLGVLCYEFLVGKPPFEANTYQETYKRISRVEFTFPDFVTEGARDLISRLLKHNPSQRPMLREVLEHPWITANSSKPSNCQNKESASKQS

[13] = kinase MAP2K5, compound at 1 μM
[14] = kinase MAPKAPK5, compound at 1 μM
[15] = kinase AurA/TPX2, 1 μM compound

SMILES	%-inhibition of MET ([1]; kinase MET, compound at 1 μM) [%]	%-inhibition of JAK2 ([2]; kinase JAK2, compound at 1 μM) [%]	%-inhibition, ALK ([3]; kinase ALK, 1 μM compound) [%]	%-inhibition of MSK2 ([4]; kinase MSK2, 1 μM) [%]	%-inhibition of NPM1-ALK [5] [%]	%-inhibition of TAK1-TAB1 [5] [%]	%-inhibition of EML4-ALK ([5]; 1 µM) [%]	%-inhibition of LYNb ([5]; 1 µM) [%]	%-inhibition of PKCβ2 ([5]; 1 µM) [%]	%-inhibition of SRM ([5]; 1 µM) [%]	%-inhibition of RSK2 ([6]; 1 µM) [%]	%-inhibition of MAP2K5 [7, 13] [%]	%-inhibition of PKACβ ([8]; kinase PKACβ, 1 μM) [%]	%-inhibition of PLK1 ([9]; kinase PLK1, 1 μM) [%]	%-inhibition of MAPKAPK5 [10, 14] [%]	%-inhibition of WNK1 ([11]; kinase WNK1, compound at 1 μM) [%]	%-inhibition, AurA/TPX2 [12, 15] [%]	%-inhibition, AurA ([12]; kinase AurA, 1 μM compound) [%]	%-inhibition of RSK2 ([6]; kinase RSK2, 1 μM) [%]	%-inhibition of PLK1 ([9]; 1 µM) [%]	other results
COc1cc(Nc2c(C#N)cnc3cc(OCCCN4CCN(C)CC4)c(OC)cc23)c(Cl)cc1Cl [bosutinib]	10	64	71	-2.27	66	83	54	94	22	58	41	63	52	5	0	–	–	–	–	–	%-inhibition of EGFR(d746-750) ([5]; 1 µM): 100%; %-inhibition of EGFR(d746-750/T790M) ([5]; 1 µM): 92%
COc1cc2nccc(Oc3ccc(NC(=O)C4(C(=O)Nc5ccc(F)cc5)CC4)cc3)c2cc1OC [cabozantinib]	–	29	49	-3.52	–	–	–	–	–	–	–	17	-4.25	-2	-5	-1.85	29	54	-3.61	–	%-inhibition of EGFR(d746-750) ([5]; kinase EGFR(d746-750), compound at 1 μM): 51%; %-inhibition of EGFR(d746-750/T790M) ([5]; kinase EGFR(d746-750/T790M), compound at 1 μM): 43%; %-inhibition of EML4-ALK ([5]; kinase EML4-ALK, compound at 1 μM): 17%; %-inhibition of LYNb ([5]; kinase LYNb, compound at 1 μM): 97%; %-inhibition of NPM1-ALK ([5]; kinase NPM1-ALK, 1 μM): 10%; %-inhibition of PKCβ2 ([5]; kinase PKCβ2, 1 μM): -0.178%; %-inhibition of SRM ([5]; kinase SRM, 1 μM): 99%; %-inhibition of TAK1-TAB1 ([5]; kinase TAK1-TAB1, 1 μM): 4.37%
C#Cc1cccc(Nc2ncnc3cc(OCCOC)c(OCCOC)cc23)c1 [erlotinib]	–	–	–	–	19	5	26	60	6	11	6.4	–	–	–	–	–	–	–	–	-10	%-inhibition of MET ([1]; 1 µM): 13%; %-inhibition of WNK1 ([11]; 1 µM): 1.82%; %-inhibition of JAK2 ([2]; 1 µM): 36%; %-inhibition, ALK ([3]; 1 µM): 35%; %-inhibition, AurA ([12]; 1 µM): 29%; %-inhibition, AurA/TPX2 ([12]; 1 µM): 1.46%; %-inhibition of MSK2 ([4]; 1 µM): 5%; %-inhibition of MAP2K5 ([7]; 1 µM): 92%; %-inhibition of PKACβ ([8]; 1 µM): -3%; %-inhibition of MAPKAPK5 ([10]; 1 µM): 1.53%
O=S(=O)(c1cccc2cnccc12)N1CCCNCC1 [fasudil]	-4	3.24	-4.38	15	–	–	–	–	–	–	–	13	–	-8.49	-1.65	3	-1.11	-2	–	–	–
CS(=O)(=O)CCNCc1ccc(-c2ccc3ncnc(Nc4ccc(OCc5cccc(F)c5)c(Cl)c4)c3c2)o1 [lapatinib]	0	-1.58	1.72	2	-3.28	–	–	7	-6	13	–	1.63	-3	–	-2.68	-0.825	-10	5.59	-1	-2.71	–
Cc1ccc(C(=O)Nc2ccc(CN3CCN(C)CC3)c(C(F)(F)F)c2)cc1C#Cc1cnc2cccnn12 [ponatinib]	17	92	9	27	–	–	–	–	–	–	–	61	–	-6	–	–	-3.42	9	30	–	–
